Experiments:
[1] = target: T1, AfGDH (Aspergillus flavus FAD-dependent glucose dehydrogenase, FADGDH) (Aspergillus flavus, UniProt B8MX95); experiment: X-ray crystal structure, […] Å; assay type: binding; settings: co-purified cofactor, refined as reduced form; pH 6.5; also in 4YNU
T1 construct: gene F9C07_464; residues 24-593, secretion signal peptide (1-22) removed; codon-optimised synthetic gene in pET30C, E. coli Origami2 (DE3); nonglycosylated; monomer
T1 sequence (B8MX95 24-593): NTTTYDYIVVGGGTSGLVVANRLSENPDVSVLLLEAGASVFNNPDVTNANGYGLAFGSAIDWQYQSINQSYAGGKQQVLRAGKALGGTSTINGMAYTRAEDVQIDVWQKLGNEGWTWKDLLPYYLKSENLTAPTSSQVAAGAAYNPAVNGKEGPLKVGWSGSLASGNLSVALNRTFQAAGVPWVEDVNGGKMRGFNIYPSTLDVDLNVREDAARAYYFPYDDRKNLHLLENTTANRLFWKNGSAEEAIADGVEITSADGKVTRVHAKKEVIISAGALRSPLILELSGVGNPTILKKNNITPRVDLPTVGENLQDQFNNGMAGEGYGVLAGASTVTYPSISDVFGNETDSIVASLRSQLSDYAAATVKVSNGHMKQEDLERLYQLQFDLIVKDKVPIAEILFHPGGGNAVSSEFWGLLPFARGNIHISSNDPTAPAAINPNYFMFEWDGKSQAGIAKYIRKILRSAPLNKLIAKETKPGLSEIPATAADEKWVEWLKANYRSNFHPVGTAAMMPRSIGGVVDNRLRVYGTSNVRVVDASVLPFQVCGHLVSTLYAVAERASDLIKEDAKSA

[2] = target: T1, AfGDH (Aspergillus flavus FAD-dependent glucose dehydrogenase, FADGDH); experiment: PMS/DCIP reduction, absorbance at […] nm; FAD reduction spectrum; assay type: biochemical; settings: 200 mM D-glucose, 0.6 mM PMS, 0.06 mM DCIP, 10 mM potassium phosphate pH 6.5, 25 °C

SMILES | X-ray crystal structure, 1.78 Å [1] | specific activity [2]
Cc1cc2c(cc1C)N(C[C@H](O)[C@H](O)[C@H](O)COP(=O)(O)OP(=O)(O)OC[C@H]1O[C@@H](n3cnc4c(N)ncnc43)[C@H](O)[C@@H]1O)c1[nH]c(=O)[nH]c(=O)c1N2 [reduced FAD] | The bound FAD molecule was refined as a reduced FAD cofactor (FADH2) | 
OC[C@H]1OC(O)[C@H](O)[C@@H](O)[C@@H]1O (stereo partly drawn) [D-glucose] |  | The addition of glucose to the wild type enzyme resulted in the disappearance of the peaks

Reference: paper PMC4642536, “Structural analysis of fungus-derived FAD glucose dehydrogenase” (Scientific Reports, 2015)
